The text below walks through data of US9090583B2, “Benzopyrone estrogen receptor regulator” (BEIJING SHENOGEN PHARMA GROUP LTD., priority 2010, dated 2015).

Common to all, as to type: cell-based
The subject of one experiment is Hep3B2.1-7 cells. The experiment in a line: MTT assay, in vitro growth of liver cancer Hep3B2.1-7 cells. The following applies: 72 hours, read-out: Inhibition on liver cancer cells, IC50.
A further experiment deals with T1, ER-α36 (Homo sapiens, UniProt P03372).
T1 construct: endogenous in cells; host or cells: HEC-1A human endometrial cancer cells
T1 sequence (P03372 1-310 isoform P03372-4): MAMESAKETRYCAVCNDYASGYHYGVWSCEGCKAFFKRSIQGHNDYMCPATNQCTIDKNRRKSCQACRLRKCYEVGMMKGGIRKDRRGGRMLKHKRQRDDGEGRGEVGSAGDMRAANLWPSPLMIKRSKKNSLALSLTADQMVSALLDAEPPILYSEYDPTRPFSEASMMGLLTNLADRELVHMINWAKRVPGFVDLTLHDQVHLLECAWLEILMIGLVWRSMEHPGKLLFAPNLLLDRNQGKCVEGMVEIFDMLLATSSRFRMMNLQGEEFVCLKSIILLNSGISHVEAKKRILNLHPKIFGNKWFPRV
The experiment in a line: Regulation of ER-α36 protein expression in HEC-1A cells (Western blot). To be noted: serum-depleted HEC-1A cells; 1, 10, 50 and 100 nM; 24 and 48 hours; effect above the concentration of 50 nM. How it is done:
Taking endometrial cancer HEC-1A cells as an example, serum-depleted HEC-1A cells were treated with compounds at concentrations of 1, 10, 50 and 100 nM for 24 hours and 48 hours. The treated cells were washed with PBS and lysed with lysis buffer (a mixture of 1*PBS (pH7.4), 1% NP-40, 0.7 mMEDTA, and protease inhibitor from Roche). The lysates were boiled for 5 minutes in a SDS gel loading buffer (25 mM Tris-Cl pH 6.8; 10% SDS; 2% glycerol; 20% β-mercaptoethanol; 0.01% bromophenol blue) and separated on a 10% SDS-PAGE gel. After electrophoresis, the proteins were transferred onto PVDF membrane (Millipore Transfer Membrane). The membrane was probed with Rabbit anti-ER36 antibody which is specific to 20 amino acid polypeptides at C-terminus of ER-α36. Then the membrane was incubated with an HRP-conjugated secondary antibody and visualized with ECL detection reagents.

Another experiment relates to MDA-MB-231 cells. The experiment in a line: CellTiter-Glo Luminescent Cell Viability Assay on ER-negative breast cancer MDA-MB-231 cells. The following applies: Homo sapiens, MDA-MB-231, 72 h, average ± standard deviation when tested more than 3 times, read-out: Inhibition of the viability of breast cancer cells, IC50. Put shortly:
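Cells seeded at 6×10^3 per well in DMEM with 10% FCS and exposed 72 h to compound at 0 to 100 μM (twelve concentrations, DMSO vehicle). Viability measured by CellTiter-Glo luminescence.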

pIC50: −log10 of the molar value. Converted amounts (≈) assume the structure as drawn.

For the compound `CC(C)=CCc1c(O)c(CC=C(C)C)c2oc(-c3ccc(C(F)(F)F)cc3)c(O)c(=O)c2c1O` [Compound 98, 2-(4-trifluoromethylphenyl)-3,5,7-trihydroxy-6,8-di(3-methyl-2-buten-1-yl)-4H-benzopyran-4-one], in the experiment on Hep3B2.1-7 cells, the IC50 was determined as 0.0144 µg/mL (≈ 0.0303 µM). For the same compound, at ER-α36, the “expression of ER-36 in cells” value is “dramatically reduced”. Further, the pIC50 with MDA-MB-231 cells is 5.79.
